Measured values from ChEMBL document CHEMBL1201862, “PubChem BioAssay data set” (2004).
Values joined by “and” are separate entries in the source; they are usually repeats but may differ in a detail not shown here. Identical values can stand only once.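 48-hour exposure; five concentrations; linearly interpolated endpoints. Here, GI50 denotes the concentration required for 50% inhibition of growth.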 Active and inactive are the calls of the source. No stated cut-off is given here; in the data, active = GI50 up to about 1.1 µM and inactive = higher.

Tests used:
Assay in all cases: DTP human tumour cell line panel, 48 h
SK-MEL-28 = tested on: SK-MEL-28
BT-549 = tested on: BT-549
RXF 393 = tested on: RXF 393
SF-295 = tested on: SF-295
CCRF-CEM = tested on: CCRF-CEM
SW-620 = tested on: SW-620
HCT-116 = tested on: HCT-116
UACC-62 = tested on: UACC-62
MDA-MB-231 = tested on: MDA-MB-231
HCT-15 = tested on: HCT-15
NCI-H460 = tested on: NCI-H460
NCI-H226 = tested on: NCI-H226
SN12C = tested on: SN12C
SK-MEL-2 = tested on: SK-MEL-2
SF-539 = tested on: SF-539
NCI-H522 = tested on: NCI-H522
Malme-3M = tested on: Malme-3M
786-0 = tested on: 786-0
HCC 2998 = tested on: HCC 2998
MOLT-4 = tested on: MOLT-4
UACC-257 = tested on: UACC-257
DU-145 = tested on: DU-145
CAKI-1 = tested on: CAKI-1
SR = tested on: SR
A549 = tested on: A549
HT-29 = tested on: HT-29
RPMI-8226 = tested on: RPMI-8226
KM12 = tested on: KM12
HL-60 = tested on: HL-60
MDA-N = tested on: MDA-N
MCF7 = tested on: MCF7
EKVX = tested on: EKVX
UO-31 = tested on: UO-31
IGROV-1 = tested on: IGROV-1
NCI-H23 = tested on: NCI-H23
U-251 = tested on: U-251
SK-MEL-5 = tested on: SK-MEL-5
OVCAR-3 = tested on: OVCAR-3
ACHN = tested on: ACHN
OVCAR-8 = tested on: OVCAR-8
SNB-19 = tested on: SNB-19
LOX IMVI = tested on: LOX IMVI
Hs-578T = tested on: Hs-578T
M14 = tested on: M14
K562 = tested on: K562
HOP-62 = tested on: HOP-62
PC-3 = tested on: PC-3
SF-268 = tested on: SF-268
T47D = tested on: T47D
TK-10 = tested on: TK-10
A498 = tested on: A498
OVCAR-4 = tested on: OVCAR-4
COLO 205 = tested on: COLO 205
SNB-75 = tested on: SNB-75
OVCAR-5 = tested on: OVCAR-5
MDA-MB-435 = tested on: MDA-MB-435
HOP-92 = tested on: HOP-92
SK-OV-3 = tested on: SK-OV-3

Measured: GI50

CC(=O)OCC1OC(n2c(C)c(C)cc(C#N)c2=S)C(OC(C)=O)C(OC(C)=O)C1OC(C)=O (configuration not stated)
inactive: SK-MEL-28 > 100 µM | BT-549 > 100 µM | RXF 393 > 100 µM | SF-295 > 100 µM | CCRF-CEM > 10 µM | SW-620 > 100 µM | HCT-116 > 100 µM | UACC-62 65.2 µM | MDA-MB-231 > 100 µM | NCI-H460 > 100 µM | NCI-H226 > 100 µM | SN12C > 100 µM | SK-MEL-2 > 100 µM and 72.1 µM | SF-539 > 100 µM | NCI-H522 > 100 µM and 52.4 µM | Malme-3M > 100 µM | 786-0 > 100 µM | HCC 2998 > 100 µM | MOLT-4 > 100 µM | UACC-257 > 100 µM | DU-145 > 100 µM | CAKI-1 > 100 µM | SR > 100 µM | A549 > 100 µM | HT-29 > 100 µM | RPMI-8226 > 100 µM | KM12 > 100 µM | HL-60 > 100 µM | MDA-N > 100 µM | MCF7 > 100 µM | EKVX > 100 µM | UO-31 > 100 µM | IGROV-1 > 100 µM | NCI-H23 > 100 µM | U-251 > 100 µM | SK-MEL-5 > 100 µM | OVCAR-3 > 100 µM | ACHN > 100 µM | OVCAR-8 > 100 µM | SNB-19 > 100 µM | LOX IMVI > 100 µM | Hs-578T > 100 µM | M14 > 100 µM | K562 > 100 µM | HOP-62 > 100 µM and 91 µM | PC-3 > 100 µM | SF-268 60.5 µM | T47D > 100 µM | TK-10 > 100 µM | A498 > 100 µM | OVCAR-4 > 100 µM
> 100 µM: HCT-15

O=C(Nc1ccc2ccccc2c1)Nn1cnnc1
> 100 µM: HCT-15
inactive: SK-MEL-28 > 100 µM | BT-549 > 100 µM | SF-295 > 100 µM | CCRF-CEM > 100 µM | COLO 205 > 100 µM | SNB-75 > 100 µM | SW-620 > 100 µM | HCT-116 > 100 µM | UACC-62 > 100 µM | MDA-MB-231 > 100 µM | NCI-H460 > 100 µM | NCI-H226 35.3 µM | SK-MEL-2 > 100 µM | SF-539 > 100 µM | NCI-H522 > 100 µM | Malme-3M > 100 µM | 786-0 > 100 µM | HCC 2998 > 100 µM | MOLT-4 > 100 µM | UACC-257 > 100 µM | DU-145 > 100 µM | CAKI-1 > 100 µM | OVCAR-5 > 100 µM | SR > 100 µM | A549 > 100 µM | HT-29 > 100 µM | RPMI-8226 > 100 µM | KM12 > 100 µM | HL-60 > 100 µM | MDA-N > 100 µM | MCF7 > 100 µM | EKVX > 100 µM | UO-31 80.4 µM | IGROV-1 > 100 µM | MDA-MB-435 > 100 µM | HOP-92 > 100 µM | NCI-H23 > 100 µM | U-251 > 100 µM | SK-MEL-5 > 100 µM | OVCAR-3 > 100 µM | ACHN > 100 µM | OVCAR-8 > 100 µM | SNB-19 > 100 µM | LOX IMVI > 100 µM | Hs-578T > 100 µM | SK-OV-3 > 100 µM | M14 > 100 µM | K562 > 100 µM | HOP-62 > 100 µM | PC-3 > 100 µM | SF-268 > 100 µM | T47D > 100 µM | TK-10 > 100 µM | A498 > 100 µM | OVCAR-4 > 100 µM

Cc1nn(C(=O)Cc2ccccc2)c2c1C(c1ccccc1)SC(=N)N2 (configuration not stated)
inactive: SK-MEL-28 > 100 µM | BT-549 > 100 µM | SF-295 > 100 µM | CCRF-CEM > 100 µM | COLO 205 > 100 µM | SNB-75 43.5 µM | SW-620 > 100 µM | HCT-116 > 100 µM | UACC-62 > 100 µM | MDA-MB-231 > 100 µM | NCI-H460 > 100 µM | NCI-H226 > 100 µM | SN12C > 100 µM | SF-539 > 100 µM | NCI-H522 > 100 µM | Malme-3M > 100 µM | 786-0 > 100 µM | HCC 2998 > 100 µM | MOLT-4 > 100 µM | UACC-257 > 100 µM | DU-145 > 100 µM | CAKI-1 > 100 µM | SR > 100 µM | A549 > 100 µM | HT-29 > 100 µM | RPMI-8226 > 100 µM | KM12 > 100 µM | HL-60 > 100 µM | MDA-N > 100 µM | MCF7 > 100 µM | EKVX > 100 µM | UO-31 > 100 µM | IGROV-1 > 100 µM | MDA-MB-435 > 100 µM | NCI-H23 > 100 µM | SK-MEL-5 > 100 µM | ACHN > 100 µM | OVCAR-8 > 100 µM | SNB-19 > 100 µM | LOX IMVI > 100 µM | Hs-578T > 100 µM | SK-OV-3 > 100 µM | M14 > 100 µM | K562 > 100 µM | HOP-62 > 100 µM | PC-3 > 100 µM | SF-268 > 100 µM | T47D > 100 µM | TK-10 > 100 µM | A498 > 100 µM
> 100 µM: HCT-15

Cc1cc(C)c2c(c1)C(=O)/C(=C/c1ccccc1C(=O)O)C2
inactive: SK-MEL-28 > 100 µM | BT-549 78 µM | RXF 393 38.7 µM | SF-295 52.2 µM | CCRF-CEM 44.2 µM | SNB-75 40 µM | SW-620 84.3 µM | HCT-116 63 µM | UACC-62 89.5 µM | MDA-MB-231 50.2 µM | NCI-H460 58.5 µM | NCI-H226 30.9 µM | SN12C 53.8 µM | SK-MEL-2 > 100 µM | SF-539 25.9 µM | NCI-H522 20.6 µM | Malme-3M > 100 µM | 786-0 > 100 µM | HCC 2998 51.3 µM | MOLT-4 34.4 µM | UACC-257 > 100 µM | DU-145 > 100 µM | CAKI-1 > 100 µM | SR 62.4 µM | A549 65.6 µM | HT-29 59 µM | RPMI-8226 55.1 µM | KM12 94.6 µM | HL-60 57.7 µM | MDA-N 67.5 µM | MCF7 88.7 µM | EKVX 29.1 µM | UO-31 > 100 µM | IGROV-1 > 100 µM | HOP-92 > 100 µM | U-251 35.7 µM | SK-MEL-5 59.8 µM | OVCAR-3 22.5 µM | ACHN > 100 µM | OVCAR-8 68.4 µM | SNB-19 50.1 µM | LOX IMVI 71.9 µM | Hs-578T > 100 µM | M14 90.4 µM | K562 52.5 µM | HOP-62 67.5 µM | PC-3 43.2 µM | SF-268 61.7 µM | T47D 39 µM | TK-10 > 100 µM | A498 67 µM | OVCAR-4 45.1 µM
54.3 µM: HCT-15

CC(=O)C(CN1C(=O)c2ccccc2C1=O)C(C)=O
> 100 µM: HCT-15
inactive: SK-MEL-28 > 100 µM | BT-549 > 100 µM | RXF 393 23.1 µM | SF-295 > 100 µM | COLO 205 > 100 µM | SNB-75 > 100 µM | SW-620 > 100 µM | HCT-116 > 100 µM | UACC-62 > 100 µM | MDA-MB-231 > 100 µM | NCI-H460 > 100 µM | NCI-H226 > 100 µM | SN12C > 100 µM | SK-MEL-2 > 100 µM | SF-539 > 100 µM | NCI-H522 > 100 µM | 786-0 > 100 µM | HCC 2998 > 100 µM | UACC-257 > 100 µM | DU-145 > 100 µM | CAKI-1 > 100 µM | OVCAR-5 > 100 µM | A549 > 100 µM | HT-29 > 100 µM | MDA-N > 100 µM | MCF7 > 100 µM | EKVX > 100 µM | UO-31 > 100 µM | IGROV-1 > 100 µM | MDA-MB-435 > 100 µM | HOP-92 > 100 µM | NCI-H23 > 100 µM | U-251 > 100 µM | SK-MEL-5 > 100 µM | OVCAR-3 > 100 µM | ACHN > 100 µM | OVCAR-8 > 100 µM | SNB-19 > 100 µM | Hs-578T > 100 µM | SK-OV-3 > 100 µM | M14 > 100 µM | K562 > 100 µM | HOP-62 > 100 µM | PC-3 > 100 µM | SF-268 > 100 µM | T47D > 100 µM | TK-10 > 100 µM | A498 > 100 µM | OVCAR-4 > 100 µM
